Patent US20250011881A1, “MYC-HSF1 DUAL AMPLIFICATION AS A BIOMARKER FOR CANCER TREATMENT” (The Trustees of Indiana University, priority 2023, published 2025)
Several values for one entry are separate records, joined by “and”; a condition that tells them apart may be missing. Identical values can stand only once. Counter-ions that a name gives are not always drawn. Like-named read-outs stand apart in the source and are kept apart here.

Test system: ovarian cancer cells with (OVCAR8, OVCAR4) or without (OVSAHO, CAOV3) MYC-HSF1 amplification
Assay: Epigenetic inhibitor drug screen, cell viability (Cell Titer Blue)
Assay type: cell-based
[1] = 10 uM, 48 hrs, average relative cell viability (vs 1% DMSO) of non-amplified cells (OVSAHO, CAOV3) minus that of MYC-HSF1 amplified cells (OVCAR8, OVCAR4), positive = greater response in amplified cells
[2] = 10 uM, 48 hrs, average relative cell viability (vs 1% DMSO) of non-amplified cells (OVSAHO, CAOV3) minus that of MYC-HSF1 amplified cells (OVCAR8, OVCAR4), positive = greater response in amplified cells, 10 µM

| SMILES | Non Amp - AMP (POC) 10 uM [1] [POC] | also measured |
| --- | --- | --- |
| COC(=O)[C@]12CCC(C)(C)C[C@H]1[C@H]1C(=O)C=C3[C@@]4(C)C=C(C#N)C(=O)C(C)(C)[C@@H]4CC[C@@]3(C)[C@]1(C)CC2 [Bardoxolone methyl] | 6.087 | – |
| CCS(=O)(=O)N1CC(CC#N)(n2cc(-c3ncnc4[nH]ccc34)cn2)C1 [Baricitinib (LY3009104, INCB028050), Baricitinib] | −2.641 | – |
| CCS(=O)(=O)N1CC(CC#N)(n2cc(-c3ncnc4[nH]ccc34)cn2)C1.O=P(O)(O)O [Baricitirib phosphate] | 7.373 | – |
| O=C(/C=C/c1cccc(S(=O)(=O)Nc2ccccc2)c1)NO [Belinostat (PXD101), Belinostat] | 12.55 | – |
| NC(=O)c1ccccc1 [Benzamide] | −5.576 | – |
| CCOC(=O)Nc1cc(-c2ccc(C)c(NS(C)(=O)=O)c2)nn2c(C)nnc12 [Bromosporine] | – | Non Amp - AMP (POC) 10 uM [2]: 15.35 POC and 21.43 POC |
| C=C1C(=O)O[C@@H](CCC)[C@@H]1C(=O)O [Butyrolacetone 3] | – | Non Amp - AMP (POC) 10 uM: 9.966 POC |
| Nc1ccc(S(=O)(=O)NCCc2ccccc2)cc1 [C-7280948] | – | Non Amp - AMP (POC) 10 uM [2]: 13.45 POC; Non Amp - AMP (POC) 10 uM (10 uM, 48 hrs, average relative cell viability (vs 1% DMSO) of non-amplified cells (OVSAHO, CAOV3) minus that of MYC-HSF1 amplified cells (OVCAR8, OVCAR4), positive = greater response in amplified cells, listed as C7280948, 10 µM): 0.5735 POC |
| CN(C)c1ccc(C(=O)NCCCCCC(=O)NO)cc1 [CAY10398] | 48.61 | – |
| COCCCn1c(N)c(C(=O)NC2CCCC2)c2nc3ccccc3nc21 [CAY10591] | 11.91 | – |
| CC(C)(C)OC(=O)Nc1ccc(-c2cc(C(=O)NCCCCCCC(=O)NO)no2)cc1 [CAY10603] | – | Non Amp - AMP (POC) 10 uM [2]: 43.89 POC and 29.05 POC |
| CCOC(=O)NCCCC(=O)NCCc1ccccc1 [CAY10683, Santacruzamate A] | – | Non Amp - AMP (POC) 10 uM [2]: 18.98 POC; Non Amp - AMP (POC) 10 uM (10 uM, 48 hrs, average relative cell viability (vs 1% DMSO) of non-amplified cells (OVSAHO, CAOV3) minus that of MYC-HSF1 amplified cells (OVCAR8, OVCAR4), positive = greater response in amplified cells, listed as Santacruzamate A (CAY10683), 10 µM): −0.9653 POC |
| O=C(Cc1ccccc1)Nc1ccc2oc(-c3ccc(Cl)cc3Cl)nc2c1 [CAY10722] | −11.2 | – |
| O=C(/C=C/c1cccc(C(=O)NO)c1)NO [CBHA] | 37.53 | – |
| CN(C)c1ccc(-c2nc3ncc(Cl)c(N4CCN(CC(=O)Nc5nccs5)CC4)c3[nH]2)cc1 [CCT129202] | 2.662 | – |
| Cc1cc(CN2CCN(c3c(Br)cnc4nc(-c5ccc(N6CCN(C)CC6)cc5)[nH]c34)CC2)no1 [CCT137690] | 9.076 | – |
| CN1CCN(c2cccc(Nc3nc4c(-c5ccc(S(C)(=O)=O)cc5)cccn4n3)c2)CC1 [CEP-33779] | 15.1 | – |
| CC(=O)Nc1ccc(C(=O)Nc2ccccc2N)cc1 [CI-994, Tacedinaline] | – | Non Amp - AMP (POC) 10 uM [2]: 25.18 POC; Non Amp - AMP (POC) 10 uM (10 uM, 48 hrs, average relative cell viability (vs 1% DMSO) of non-amplified cells (OVSAHO, CAOV3) minus that of MYC-HSF1 amplified cells (OVCAR8, OVCAR4), positive = greater response in amplified cells, listed as CI994 (Tacedinaline), 10 µM): 16.47 POC |
| Cl.NC(=O)[C@H](CCCN=C(N)CCl)NC(=O)c1ccccc1 [CI-Amidine (hydrochloride), CI-Amidine] | 5.451 | – |
| O=C(Nc1ccc(CN2CCOCC2)cc1)c1ccc(-c2cccc(Cl)c2)o1 [CID 2011756] | – | Non Amp - AMP (POC) 10 uM: 21.79 POC |
| CCS(=O)(=O)N1CCC([C@@H](C)n2c(C)c(C(=O)NCc3c(OC)cc(C)[nH]c3=O)c3ccccc32)CC1 [CPI-169] | 3.906 | – |
| C[C@@H]1CC(=O)Nc2cccc(-c3ccc4c(c3)c(-c3cnn(C)c3)nn4C)c2N1 [CPI-637] | −2.546 | – |
| Cl.Clc1ccc(-c2csc(NN=C3CCCC3)n2)cc1 [CPTH2 (hydrochloride)] | 6.251 | – |
| Br.CC1CC/C(=N\Nc2nc(-c3ccc(Cl)cc3)cs2)C1 (stereo not drawn) [CPTH6 (hydrobromide)] | 13.3 | – |

| SMILES | Non Amp - AMP (POC) 10 uM [1] [POC] | also measured |
| --- | --- | --- |
| C#Cc1cccc(Nc2ncnc3cc(OC)c(OCCCCCCC(=O)NO)cc23)c1 [CUDC-101] | 28.26 | – |
| COc1ccc(-c2nc(N3CCOCC3)c3sc(CN(C)c4ncc(C(=O)NO)cn4)cc3n2)cn1 [CUDC-907] | 8.159 | – |
| CN1CCCN(C(=O)c2cccc(-c3ccc(/C=C4/C(=O)Nc5ccc(Cl)cc54)o3)c2)CC1 [CX-6258] | −7.528 | – |
| Cc1nn(C)cc1CN1CCC(c2ccc(C(=O)Nc3ccccc3N)cc2)CC1 [CXD101] | 83.35 | – |
| Cc1nc(N)sc1-c1ccnc(Nc2ccc(N3CCOCC3)cc2)n1 [CYC116] | 8.383 | – |
| N#CCNC(=O)c1ccc(-c2ccnc(Nc3ccc(N4CCOCC4)cc3)n2)cc1 [CYT387] | −4.087 | – |
| N.N.O=C([O-])C1(C(=O)[O-])CCC1.[Pt+2] [Carboplatin] | −13.46 | – |
| Cn1cc(C(=O)Nc2ccc3c(c2)OCCO3)c2ccccc2c1=O [CeMMEC1] | −1.809 | – |
| CCS(=O)(=O)N1CCN(c2ccc(Nc3ncc(C(N)=O)c(NC4CC4)n3)cc2)CC1 [Cerdulatinib (PRT062070), Cerdulatinib] | −1.406 | – |
| COc1ccc2c(c[n+](C)c3c4cc5c(cc4ccc23)OCO5)c1OC [Chelerythrine Chloride] | – | Non Amp - AMP (POC) 10 uM [2]: −21.5 POC |
| COc1ccc2c(c[n+](C)c3c4cc5c(cc4ccc23)OCO5)c1OC [Chelerythrine] | – | Non Amp - AMP (POC) 10 uM [2]: −18.62 POC |
| Nc1cc(F)ccc1NC(=O)c1ccc(CNC(=O)/C=C/c2cccnc2)cc1 [Chidamide] | 33.85 | – |
| O=c1ccc2ccccc2o1 [Coumarin] | 5.809 | – |
| CC(C)(O)/C=C/C(=O)[C@](C)(O)[C@H]1[C@H](O)C[C@@]2(C)[C@@H]3CC=C4[C@@H](C=C(O)C(=O)C4(C)C)[C@]3(C)C(=O)C[C@]12C [Cucurbitacin I] | – | Non Amp - AMP (POC) 10 uM: 0.02387 POC |
| C=C1C[C@@]2(O)O[C@@]3(C[C@H]2C(C)C)[C@@H](C)CC[C@@H]13 [Curcumol] | −1.726 | – |
| CN1CCC(=C2c3ccccc3C=Cc3ccccc32)CC1 [Cyproheptadine (hydrochloride hydrate), Cyproheptadine] | 6.958 | – |
| Nc1ccn([C@@H]2O[C@H](CO)[C@@H](O)[C@@H]2O)c(=O)n1 [Cytarabine] | 1.9 | – |
| CCCCCCCCCCCCC/C=C/[C@@H](O)[C@@H](N)CO [D-erythro-Sphingosine (synthetic), D-erythro-Sphingosine] | – | Non Amp - AMP (POC) 10 uM: 2.713 POC |
| COC(=O)CNC(=O)C(=O)OC [DMOG] | −8.654 | – |
| CO[C@@H](C(=O)N1Cc2n[nH]c(NC(=O)c3ccc(N4CCN(C)CC4)cc3)c2C1)c1ccccc1 [Danusertib (PHA-739358), Danusertib] | −1.72 | – |
| O=C(O)CNC(=O)C1C(=O)N(C2CCCCC2)C(=O)N(C2CCCCC2)C1=O [Daprodustat(GSK1278863), Daprodustat] | – | Non Amp - AMP (POC) 10 uM: 0.9715 POC |
| CCCCCCCCCC(=O)N[C@@H](Cc1c[nH]c2ccccc12)C(=O)N[C@H](CC(N)=O)C(=O)N[C@@H](CC(=O)O)C(=O)N[C@@H]1C(=O)NCC(=O)N[C@@H](CCCN)C(=O)N[C@@H](CC(=O)O)C(=O)N[C@H](C)C(=O)N[C@@H](CC(=O)O)C(=O)NCC(=O)N[C@H](CO)C(=O)N[C@@H]([C@H](C)CC(=O)O)C(=O)N[C@@H](CC(=O)c2ccccc2N)C(=O)O[C@@H]1C [Daptomycin] | 3.207 | – |
| CC[C@@](C)(Nc1ccnc(-c2c[nH]c3ncccc23)n1)C(=O)NCC(F)(F)F [Decernotinib(VX-509), Decernotinib] | 7.322 | – |
| Oc1cc(O)c2cc(O)c(-c3cc(O)c(O)c(O)c3)[o+]c2c1 [Delphinidin (chloride), Delphinidin] | 9.89 | – |
